Source: patent publication US8017612B2, “Piperazine compound and use thereof as a HCV polymerase inhibitor” (priority 2006, dated 2011)

What was measured:
[1] = biological target: T1, HCV polymerase (NS5B) type 1b (Hepatitis C virus genotype 1b, UniProt P26663); test: Assay of enzyme (HCV polymerase) inhibitory activity, type 1b enzyme; format: biochemical, HCV BK strain (type 1b); conditions: HCV polymerase inhibitory activity IC50, 1b, type 1b enzyme
T1 construct: a region encoding NS5B (J Virol 1991 March, 65(3), 1105-13, 544 amino acids after deletion of 47 amino acids on the C-terminal); 6xHis (C); made in house; host or cells: Escherichia coli
Procedure, shortened: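 Rxn: NS5B 1b (BK, ΔC47, His6) 0.5 μg/ml; substrate RNA 5 μg/ml; ATP/GTP/CTP 50 μM, UTP 2 μM + [5,6-3H]UTP; 20 mM Tris pH 7.5, 5 mM MgCl2, 50 mM NaCl, 1 mM EDTA/DTT. 25 °C, 60 min. Stop with TCA/pyrophosphate, filter, scintillation count; IC50 vs. untreated.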

[2] = biological target: T2, HCV polymerase (NS5B) type 1a (Hepatitis C virus genotype 1a, UniProt P26664); test: Assay of enzyme (HCV polymerase) inhibitory activity, type 1a enzyme; format: biochemical, HCV type 1a (cloned from the blood of patients); conditions: HCV polymerase inhibitory activity IC50, 1a, type 1a enzyme
T2 construct: made in house; host or cells: Escherichia coli (by the 'similar method' of the 1b enzyme)
Procedure, shortened: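 NS5B Δ47 C-term His6 (type 1a, 1.5 μg/ml); substrate RNA 5 μg/ml; ATP/GTP/CTP 50 μM, UTP 2 μM + [5,6-3H]UTP; Tris pH 7.5, MgCl2 5 mM; 25° C, 60 min. TCA/pyrophosphate stop, GF/B filter, scintillation. IC50 vs no-compound control.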

Compound	IC50 [1] [nM]	IC50 [2] [nM]
CCCc1ccc(CNC(=O)[C@H]2CN(c3nc(C)c(C(=O)C(=O)OCC)s3)CCN2S(=O)(=O)c2ccc(OC(F)(F)F)cc2)cc1 [Example 846, {4-methyl-2-[(R)-3-(4-propyl-benzylcarbamoyl)-4-(4-trifluoromethoxy-benzenesulfonyl)-piperazin-1-yl]-thiazol-5-yl}-oxo-acetic acid ethyl ester]	< 100	100 to 1000
CCCc1ccc(CNC(=O)[C@H]2CN(c3nc(Cl)c(C(=O)O)s3)CCN2S(=O)(=O)c2ccc(OC(F)(F)F)cc2)cc1 [Example 847, 4-chloro-2-[(R)-3-(4-propyl-benzylcarbamoyl)-4-(4-trifluoromethoxy-benzenesulfonyl)-piperazin-1-yl]-thiazole-5-carboxylic acid]	< 100	< 100
CCCc1ccc(CNC(=O)[C@H]2CN(c3nc(C)c(C(=O)C(=O)O)s3)CCN2S(=O)(=O)c2ccc(OC(F)(F)F)cc2)cc1 [Example 848, {4-methyl-2-[(R)-3-(4-propyl-benzylcarbamoyl)-4-(4-trifluoromethoxy-benzenesulfonyl)-piperazin-1-yl]-thiazol-5-yl}-oxo-acetic acid]	< 100	< 100
O=C(NCC1CC1c1ccccc1)[C@H]1CN(c2cnc3cncnc3n2)CCN1S(=O)(=O)c1ccc(OC(F)(F)F)cc1 (stereo partly drawn) [Example 849, (R)-4-pteridin-7-yl-1-(4-trifluoromethoxy-benzenesulfonyl)-piperazine-2-carboxylic acid (2-phenyl-cyclopropylmethyl)-amide]	< 100	100 to 1000
O=C(NCc1ccc(OC(F)(F)F)cc1)[C@H]1CN(c2nc3cn[nH]c(=O)c3s2)CCN1S(=O)(=O)c1ccc(Cl)s1 [Example 850, (R)-1-(5-chloro-thiophene-2-sulfonyl)-4-(7-oxo-6,7-dihydro-thiazolo[4,5-d]pyridazin-2-yl)-piperazine-2-carboxylic acid 4-trifluoromethoxy-benzylamide]	< 100	< 100
COCC(C)(C)c1ccc(CNC(=O)[C@H]2CN(c3nc4cn[nH]c(=O)c4s3)CCN2S(=O)(=O)c2ccc(OC(F)(F)F)cc2)cc1 [Example 851, (R)-4-(7-oxo-6,7-dihydro-thiazolo[4,5-d]pyridazin-2-yl)-1-(4-trifluoromethoxy-benzenesulfonyl)-piperazine-2-carboxylic acid 4-(2-methoxy-1,1-dimethyl-ethyl)-benzylamide]	< 100	< 100
CCNC(=O)c1cnc(N2CCN(S(=O)(=O)c3ccc(OC(F)(F)F)cc3)[C@@H](C(=O)NCc3ccc(OC(F)(F)F)cc3)C2)cn1 [Example 852, (R)-4-(4-trifluoromethoxy-benzenesulfonyl)-3,4,5,6-tetrahydro-2H-[1,2′]bipyrazinyl-3,5′-dicarboxylic acid 5′-ethylamide 3-(4-trifluoromethoxy-benzylamide)]	< 100	< 100
CC(C)(C)NC(=O)c1cnc(N2CCN(S(=O)(=O)c3ccc(OC(F)(F)F)cc3)[C@@H](C(=O)NCc3ccc(OC(F)(F)F)cc3)C2)cn1 [Example 853, (R)-4-(4-trifluoromethoxy-benzenesulfonyl)-3,4,5,6-tetrahydro-2H-[1,2′]bipyrazinyl-3,5′-dicarboxylic acid 5′-tert-butylamide 3-(4-trifluoromethoxy-benzylamide)]	100 to 1000	> 1000
CCc1ccc(S(=O)(=O)N2CCN(c3cnc4cncc(C(=O)O)c4n3)C[C@@H]2C(=O)NCc2ccc(C(C)(C)CC)cc2)cc1 [Example 854, 2-[(R)-3-[4-(1,1-dimethyl-propyl)-benzylcarbamoyl]-4-(4-ethyl-benzenesulfonyl)-piperazin-1-yl]-pyrido[3,4-b]pyrazine-8-carboxylic acid]	< 100	< 100
CCCCc1ccc(CNC(=O)[C@H]2CN(c3cnc4cncc(C(=O)O)c4n3)CCN2S(=O)(=O)c2ccc(CC)cc2)cc1 [Example 855, 2-[(R)-3-(4-butyl-benzylcarbamoyl)-4-(4-ethyl-benzenesulfonyl)-piperazin-1-yl]-pyrido[3,4-b]pyrazine-8-carboxylic acid]	< 100	< 100
CCCc1ccc(CNC(=O)[C@H]2CN(c3nc(C)c(C(O)C(=O)OCC)s3)CCN2S(=O)(=O)c2ccc(OC(F)(F)F)cc2)cc1 (stereo partly drawn) [Example 856, hydroxy-{4-methyl-2-[(R)-3-(4-propyl-benzylcarbamoyl)-4-(4-trifluoromethoxy-benzenesulfonyl)-piperazin-1-yl]-thiazol-5-yl}-acetic acid ethyl ester]	< 100	100 to 1000
CCCc1ccc(CNC(=O)[C@H]2CN(c3cnc4cncnc4n3)CCN2S(=O)(=O)c2ccc(OC(F)(F)F)cc2)s1 [Example 857, (R)-4-pteridin-7-yl-1-(4-trifluoromethoxy-benzenesulfonyl)-piperazine-2-carboxylic acid (5-propyl-thiophen-2-ylmethyl)-amide]	< 100	< 100
CCC(C)(C)c1ccc(CNC(=O)[C@H]2CN(c3cnc4cncc(C(=O)O)c4n3)CCN2S(=O)(=O)c2ccc(Cl)s2)cc1 [Example 858, 2-{(R)-4-(5-chloro-thiophene-2-sulfonyl)-3-[4-(1,1-dimethyl-propyl)-benzylcarbamoyl]-piperazin-1-yl}-pyrido[3,4-b]pyrazine-8-carboxylic acid]	< 100	< 100
CCCc1ccc(CNC(=O)[C@H]2CN(c3nc(C)c(C(=O)C(=O)NC)s3)CCN2S(=O)(=O)c2ccc(OC(F)(F)F)cc2)cc1 [Example 859, (R)-4-(4-methyl-5-methylaminooxalyl-thiazol-2-yl)-1-(4-trifluoromethoxy-benzenesulfonyl)-piperazine-2-carboxylic acid 4-propyl-benzylamide]	< 100	100 to 1000
CCCc1ccc(CNC(=O)[C@H]2CN(c3cnc4cncc(C(=O)O)c4n3)CCN2S(=O)(=O)c2ccc(Cl)s2)cc1 [Example 860, 2-[(R)-4-(5-chloro-thiophene-2-sulfonyl)-3-(4-propyl-benzylcarbamoyl)-piperazin-1-yl]-pyrido[3,4-b]pyrazine-8-carboxylic acid]	< 100	< 100
O=C(O)c1cncc2ncc(N3CCN(S(=O)(=O)c4ccc(Cl)s4)[C@@H](C(=O)NCc4ccc(OC(F)(F)F)cc4)C3)nc12 [Example 861, 2-[(R)-4-(5-chloro-thiophene-2-sulfonyl)-3-(4-trifluoromethoxy-benzylcarbamoyl)-piperazin-1-yl]-pyrido[3,4-b]pyrazine-8-carboxylic acid]	< 100	< 100
CCCc1ccc(CNC(=O)[C@H]2CN(c3nc4c(C(=O)OCC)n[nH]c(=O)c4s3)CCN2S(=O)(=O)c2ccc(CC)cc2)cc1 [Example 862, 2-[(R)-4-(4-ethyl-benzenesulfonyl)-3-(4-propyl-benzylcarbamoyl)-piperazin-1-yl]-7-oxo-6,7-dihydro-thiazolo[4,5-d]pyridazine-4-carboxylic acid ethyl ester]	< 100	< 100
CCCc1ccc(CNC(=O)[C@H]2CN(c3nc4c(C(=O)O)n[nH]c(=O)c4s3)CCN2S(=O)(=O)c2ccc(CC)cc2)cc1 [Example 863, 2-[(R)-4-(4-ethyl-benzenesulfonyl)-3-(4-propyl-benzylcarbamoyl)-piperazin-1-yl]-7-oxo-6,7-dihydro-thiazolo[4,5-d]pyridazine-4-carboxylic acid]	< 100	< 100
O=C(NCc1ccc(OC(F)(F)F)cc1)[C@H]1CN(c2nc3cn[nH]c(=O)c3s2)CCN1S(=O)(=O)c1ccc(F)cc1 [Example 864, (R)-1-(4-fluoro-benzenesulfonyl)-4-(7-oxo-6,7-dihydro-thiazolo[4,5-d]pyridazin-2-yl)-piperazine-2-carboxylic acid 4-trifluoromethoxy-benzylamide]	< 100	100 to 1000
CNC(=O)c1cncc2ncc(N3CCN(S(=O)(=O)c4ccc(OC(F)(F)F)cc4)[C@@H](C(=O)NCc4ccc(OC(F)(F)F)cc4)C3)nc12 [Example 865, 2-[(R)-4-(4-trifluoromethoxy-benzenesulfonyl)-3-(4-trifluoromethoxy-benzylcarbamoyl)-piperazin-1-yl]-pyrido[3,4-b]pyrazine-8-carboxylic acid methylamide]	< 100	< 100
CN(C)C(=O)c1cncc2ncc(N3CCN(S(=O)(=O)c4ccc(OC(F)(F)F)cc4)[C@@H](C(=O)NCc4ccc(OC(F)(F)F)cc4)C3)nc12 [Example 866, 2-[(R)-4-(4-trifluoromethoxy-benzenesulfonyl)-3-(4-trifluoromethoxy-benzylcarbamoyl)-piperazin-1-yl]-pyrido[3,4-b]pyrazine-8-carboxylic acid dimethylamide]	< 100	< 100
O=C(NCC1CN(c2ccccc2)C1)[C@H]1CN(c2cnc3cncnc3n2)CCN1S(=O)(=O)c1ccc(OC(F)(F)F)cc1 [Example 867, (R)-4-pteridin-7-yl-1-(4-trifluoromethoxy-benzenesulfonyl)-piperazine-2-carboxylic acid (1-phenyl-azetidin-3-ylmethyl)-amide]	100 to 1000	100 to 1000
